Publication PMC7247425, “MRP1-Collateral Sensitizers as a Novel Therapeutic Approach in Resistant Cancer Therapy: An In Vitro and In Vivo Study in Lung Resistant Tumor” (International Journal of Molecular Sciences, 2020)

Assays:
A549/DX cells = experiment: Cytotoxicity in A549/DX and parental A549 cells, selectivity ratio; assay type: cell-based, human; conditions: cytotoxicity in parental A549 vs resistant A549/DX cells, 24 h
From the text: Therefore, A549/DX cells were selected as a model to investigate the CS properties of our compounds. Firstly, in order to confirm the data observed on the “pure” model MDCK-MRP1, we tested, in the same experimental conditions, the SR of F397, F400, and F421 by measuring their cytotoxicity in the resistant A549/DX cells and their parental counterpart A549, obtaining an SR ≥ 2 for all (SR = 2.5 for derivative F397, SR = 2.1 for F400, and SR = 2 for F421).
Since the doubling time of A549 cells is 22 h and the doubling time of A549/DX cells is 61 h (data not shown), in this first experimental set we used a 24 h time, i.e., the most suitable for A549 cells’ cytotoxicity as performed in the “pure” MRP1 model. Indeed, the accurate detection of cell viability in A549 cells was critical in calculating the SR in a reliable manner. The following experiments, all performed in A549/DX cells, were performed after 72 h, i.e., the best timing to detect a cytotoxic effect on the slowly growing resistant population.
The determination of cell growth was performed using an MTT assay at 24 or 72 h. On day 1, 10,000 cells/well were seeded into 96-well plates in a volume of 100 μL. On day 2, the drugs concentrations (0.1, 1, 10, 25 μM) were added. In all the experiments, the various drug solvents (ethanol, DMSO) were added in each control to evaluate a possible solvent cytotoxicity. After the established incubation time with drugs, 10 μL MTT (0.5 mg/mL) was added to each well, and after 3 h incubation at 37°C, the supernatant was removed. The formazan crystals were solubilized using 100 μL of DMSO and the absorbance values at 570 and 630 nm were determined on the microplate reader Victor 3 from PerkinElmer Life Sciences. The absorbance of the untreated cells was considered equal to 100% cell viability; the viability of cells measured in each experimental condition was expressed as a percentage of viable cells in the considered condition vs. the viability of the untreated cells.

A549/DX [1] = experiment: Intracellular total ROS production in A549/DX (DCFDA-AM); assay type: cell-based, human; conditions: for Intracellular ROS production with cis-Pt: 10 μM + 25 μM cis-Pt; for Intracellular ROS production with cis-Pt / Intracellular ROS production, compound alone: 24 h; for Intracellular ROS production, compound alone / Intracellular ROS production with ROS scavenger Tempol: 10 μM; for Intracellular ROS production with ROS scavenger Tempol: with 10 mM Tempol
From the text: One of the possible reasons of this sensitization is the ability of these three compounds to inhibit the efflux of cis-Pt, which is MRP1-mediated. […] This could be associated with a second reason, considering one of the putative mechanisms of CS consisting of an increased production of ROS, capable of triggering the apoptosis of MDR cells. To investigate whether this mechanism is involved in the sensitizing effects elicited by F397, F400, and F421, we measured the intracellular ROS production in A549/DX after 24 h treatment with these three molecules at 10 μM, with and without 25 μM cis-Pt (Figure 5A). […] Moreover, to verify whether the increase in ROS induced the reduction in cell viability elicited by the compounds, we evaluated the antiproliferative effect at 72 h of these three sensitizers alone and with 25 μM cis-Pt, adding 10 mM Tempol at time zero and after 48 h from the incubation.
(§1) Here, 1 × 10^6 whole cells were re-suspended in a final volume of 0.5 mL PBS and incubated for 30 min at 37 °C with 5 μM of the fluorescent probe 5-(and-6)-chloromethyl-2’,7’-dichlorodihydro-fluorescein diacetate-acetoxymethyl ester (DCFDA-AM, Sigma Chemicals Co.) in the dark. Cells were then centrifuged at 13,000× g at 37 °C and re-suspended in 0.5 mL PBS. The fluorescence of each sample, considered as the index of ROS levels, was read at 492 (λ excitation) and 517 nm (λ emission) using a Synergy HT Multi-Mode Microplate Reader (Bio-Tek Instruments). The results were expressed as nmol total ROS/mg cell proteins. A preliminary titration curve was set up by incubating the cells for 1 h with the cells treated with serial dilutions (10–0.01 nM) of the pro-oxidant agent menadione.

A549/DX [2] = experiment: Mitochondrial ROS production in A549/DX (MitoSOX Red); assay type: cell-based, human; conditions: 24 h; for Mitochondrial ROS production with cis-Pt: 10 μM + cis-Pt 25 μM; for Mitochondrial ROS production, compound alone / Mitochondrial ROS production with Mitotempol: 10 μM; for Mitochondrial ROS production with Mitotempol: Mitotempol 10 mM
Description: An increase in ROS of mitochondrial origin is particularly effective in killing multidrug-resistant cells. To investigate whether the ROS were of mithocondrial origin, the same experiment was set up evaluating ROS production at 24 h with Mitotempol, the scavenger of mithocondrial ROS.
as §1, with “10^6” for “10^6 whole”, “MitoSOX Red (Invitrogen Life Technology, Milano, Italy)” for “5-(and-6)-chloromethyl-2’,7’-dichlorodihydro-fluorescein diacetate-acetoxymethyl ester (DCFDA-AM, Sigma Chemicals Co.)”, “510” for “492”, “580” for “517”, “mitochondrial” for “total”

sigma-2 receptors = conditions: cited from earlier work; for Ki: read-out: Ki towards sigma-2 receptors
MRP1 = MRP1 (Homo sapiens, UniProt P33527); experiment: Calcein-AM transport inhibition in MDCK-MRP1 cells (MRP1 activity)
Sequence of MRP1 (P33527 whole entry): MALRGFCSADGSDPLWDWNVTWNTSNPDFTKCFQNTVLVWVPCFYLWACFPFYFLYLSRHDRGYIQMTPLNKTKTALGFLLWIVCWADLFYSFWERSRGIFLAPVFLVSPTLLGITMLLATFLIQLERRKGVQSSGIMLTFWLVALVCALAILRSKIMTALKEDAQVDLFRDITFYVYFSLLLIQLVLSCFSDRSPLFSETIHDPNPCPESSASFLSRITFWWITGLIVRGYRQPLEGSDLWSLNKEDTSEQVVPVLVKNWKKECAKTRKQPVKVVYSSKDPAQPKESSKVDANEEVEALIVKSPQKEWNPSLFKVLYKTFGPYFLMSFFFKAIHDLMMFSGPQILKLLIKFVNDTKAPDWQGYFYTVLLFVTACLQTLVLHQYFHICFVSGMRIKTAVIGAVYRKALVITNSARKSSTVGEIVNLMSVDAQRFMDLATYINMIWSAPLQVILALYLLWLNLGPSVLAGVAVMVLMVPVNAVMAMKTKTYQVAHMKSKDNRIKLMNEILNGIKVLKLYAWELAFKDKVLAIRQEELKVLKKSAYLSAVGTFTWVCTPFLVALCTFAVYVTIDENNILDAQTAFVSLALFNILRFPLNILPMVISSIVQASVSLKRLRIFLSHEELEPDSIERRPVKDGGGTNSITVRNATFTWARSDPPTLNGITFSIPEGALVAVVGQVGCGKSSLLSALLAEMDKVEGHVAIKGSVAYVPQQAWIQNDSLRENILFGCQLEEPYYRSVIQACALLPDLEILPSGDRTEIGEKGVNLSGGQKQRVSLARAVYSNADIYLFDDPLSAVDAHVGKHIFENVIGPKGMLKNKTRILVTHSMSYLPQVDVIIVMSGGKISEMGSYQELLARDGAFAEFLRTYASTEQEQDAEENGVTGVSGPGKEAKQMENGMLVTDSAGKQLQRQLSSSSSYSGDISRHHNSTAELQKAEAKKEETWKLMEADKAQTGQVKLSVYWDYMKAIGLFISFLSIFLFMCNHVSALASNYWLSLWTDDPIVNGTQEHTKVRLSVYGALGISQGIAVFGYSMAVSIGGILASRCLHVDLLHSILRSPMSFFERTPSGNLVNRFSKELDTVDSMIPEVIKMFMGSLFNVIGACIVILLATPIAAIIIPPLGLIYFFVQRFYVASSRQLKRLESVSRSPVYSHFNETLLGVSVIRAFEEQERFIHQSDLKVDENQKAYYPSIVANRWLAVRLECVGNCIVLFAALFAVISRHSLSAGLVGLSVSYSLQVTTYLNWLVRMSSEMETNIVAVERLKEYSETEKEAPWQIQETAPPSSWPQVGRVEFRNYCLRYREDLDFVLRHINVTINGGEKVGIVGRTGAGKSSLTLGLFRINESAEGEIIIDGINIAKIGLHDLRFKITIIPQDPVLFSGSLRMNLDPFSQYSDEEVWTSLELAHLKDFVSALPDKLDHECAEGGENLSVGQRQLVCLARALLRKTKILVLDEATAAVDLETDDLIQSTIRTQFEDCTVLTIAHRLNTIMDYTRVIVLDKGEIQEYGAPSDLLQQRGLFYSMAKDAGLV
Description: The activity at the MRP1 pump was determined measuring the transport inhibition of the pro-fluorescent probe Calcein-AM, an MRP1 substrate, in the MRP1-overexpressing cell line (MDCK-MRP1) by the in vitro biological assay usually performed to study an MRP1 interaction.
Each cell line (30,000 cells per well) was seeded into a black CulturePlate 96/well plate with a 100 μL medium and allowed to become confluent overnight. […] In these experimental conditions, the Calcein cell accumulation in the absence and in the presence of the tested compounds was evaluated and the fluorescence basal level was estimated with the untreated cells. In treated wells, the increase in fluorescence with respect to the basal level was measured. EC50 values were determined by fitting the fluorescence increase percentage vs. log(dose).

Row | Compound | SR (selectivity ratio) (A549/DX cells) | Intracellular ROS production with cis-Pt (A549/DX [1]) | Intracellular ROS production, compound alone (A549/DX [1]) | Intracellular ROS production with ROS scavenger Tempol (A549/DX [1]) | Mitochondrial ROS production with cis-Pt (A549/DX [2]) | Mitochondrial ROS production, compound alone (A549/DX [2]) | Mitochondrial ROS production with Mitotempol (A549/DX [2]) | Ki (sigma-2 receptors) [µM] | EC50 (MRP1) [µM] | sigma-2 receptor affinity (sigma-2 receptors)
1 | COc1ccc(CNCCCCc2cn(-c3ccc(F)cc3)c3ccccc23)cc1OC [F421, N-{4-[1-(4-fluorophenyl)-1H-indol-3-yl]butyl}-3,4-dimethoxybenzylamine] | 2 | further enhanced when they were co-administrated with the antineoplastic drug | increased the amount of intracellular ROS | reverted by the ROS scavenger Tempol | enforced by the concurrent administration of cis-Pt | increased the intramithocondrial ROS | reversed by Mitotempol | 0.169 | 28 ± 4.8 | 
2 | COc1cc2c(cc1OC)CN(CCCCc1cn(-c3ccc(F)cc3)c3ccccc13)CC2 [F397, 6,7-dimethoxy-2-{4-[1-(4-fluorophenyl)-1H-indol-3-yl]butyl}-1,2,3,4-tetrahydroisoquinoline] | 2.5 | further enhanced when they were co-administrated with the antineoplastic drug | increased the amount of intracellular ROS | reverted by the ROS scavenger Tempol | enforced by the concurrent administration of cis-Pt | increased the intramithocondrial ROS | reversed by Mitotempol | 0.00534 | 16.7 ± 3.2 | 
3 | COc1cc2c(cc1OC)CN(C(=O)CCC1CCCc3c(OC)cccc31)CC2 (stereo not drawn) [F400, 6,7-dimethoxy-2-[3-(5-methoxy-1,2,3,4-tetrahydronaphthalen-1-yl)propionyl]-1,2,3,4 tetrahydroisoquinoline] | 2.1 | further enhanced when they were co-administrated with the antineoplastic drug | increased the amount of intracellular ROS | reverted by the ROS scavenger Tempol | enforced by the concurrent administration of cis-Pt | increased the intramithocondrial ROS | reversed by Mitotempol |  | 17.6 ± 3.8 | devoid of sigma-2 receptor affinity
